Data published in patent US20240226107A1, “UBIQUITIN-SPECIFIC PROTEASE 1 (USP1) INHIBITOR” (SIMCERE ZAIMING PHARMACEUTICAL CO., LTD., priority 2021, published 2024).
pIC50: −log10 of the molar value. ≈ marks a conversion by molar mass, not a printed value.

Columns and labels:
[1] = Solubility (PBS pH 7.4) of compounds from DMSO solution; assay type: physicochemical; details: aqueous buffer, kinetic from dmso stock, 10 mM DMSO solution into PBS pH 7.4, 25° C., read-out: Calculated solubility
Experimental: The solubility (PBS pH 7.4) of a compound to be tested was determined by LC/MS/MS. 6 μL of 10 mM DMSO solution of the compound to be tested was mixed with 194 μL of DMSO to prepare 300 μM compound solution. In 490 μL of water and acetonitrile (1:1) containing an internal standard, 5 μL of the solution and 5 μL of PBS pH 7.4 solution were mixed to prepare 3 μM standard concentration solution of the sample to be tested. The dilution factor of the standard solution can be adjusted according to the strength of response signals in LC/MS.
To 485 μL of PBS pH 7.4 solution, 15 μL of 10 mM DMSO solution of the compound to be tested was added. […] After shaking, the stir bar was removed, and the sample was transferred to a filter plate and filtered using a vacuum manifold. In 490 μL of water and acetonitrile (1:1) containing an internal standard, 5 μL of filtrate and 5 μL of PBS pH 7.4 solution were mixed to prepare a solution to be tested. The dilution factor can be adjusted according to the solubility value and the strength of response signals in LC/MS.
The resulting samples were determined by LC/MS/MS. The sample solubility was calculated from peak areas of the solution of the compound to be tested and the standard concentration solution, according to the following equation:
[formula] • [Sample] is the solubility of the sample to be tested; • Area ratiosample is the ratio of the peak area of sample in the sample to be tested to the peak area of the internal standard; • INJ VOL STD is the injection volume of the standard concentration solution; • DFsample is the dilution factor of the solution of the sample to be tested; • [STD] is the concentration of the standard concentration solution; • INJ VOLsample is the injection volume of the solution of the sample to be tested; and • Area ratio STD is the ratio of the peak area of sample in the standard concentration solution to the peak area of the internal standard.

[2] = target: USP1 (Recombinant Human His6-USP1/His6-UAF1 Complex Protein) (Homo sapiens (Human), UniProt O94782); assay: In vitro activity assay for USP1 (Ub-CHOP2-Reporter deubiquitination assay); assay type: biochemical; details: 0.5 h incubation at room temperature, read-out: In vitro inhibitory activity of USP1 IC50
Experimental: The assay kit (Ub-CHOP2-Reporter Deubiquitination Assay Kit) was purchased from Lifesensors, with Cat. No. of PR1101. The assay kit was subpackaged and stored at −80° C.
Each compound to be tested was dissolved with DMSO to 10 mM. The compound and pure DMSO (with a total volume of 50 nL) were loaded to each well of the 384-well plate by using an ECHO instrument to obtain gradient-diluted sample concentrations at different ratios. The enzyme was diluted with a freshly prepared reaction solution (20 mM Tris-HCl (pH 8.0), 2 mM CaCl2, 2 mM β-mercaptoethanol, 0.05% CHAPS, and ddH2O). To each well, 5 μL of diluted enzyme reaction solution was added, then the plate was centrifuged and oscillated to mix the enzyme and the compound, and the mixture was centrifuged again and placed on ice. The kit reporter system and the substrate were diluted with the reaction solution, then 5 μL of diluted liquid was added to each well, and mixed by centrifugation. The mixture was incubated at room temperature for 0.5 h. […] The inhibitory activity (IC50 values) of the compound on enzyme activity was calculated by using a four-parameter Logistic Model. […] A, B, C, and D are four parameters.

[3] = Metabolic stability in vitro in rat hepatocytes; assay type: in vitro ADME; details: read-out: Intrinsic clearance
Experimental: The concentration of each compound in the reaction system was measured by LC/MS/MS to calculate the intrinsic clearance of the compounds to be tested, and evaluate the metabolic stability in vitro in rat hepatocytes.
To the incubation plate, 198 μL of 0.5×10^6 cells/mL rat hepatocyte mixture and 2.0 μL of 100 μM compound to be tested or positive control were added to initiate reaction. Incubation was performed at 900 rpm at 37° C. […] Then the mixture was vortex-mixed for 5 min. […] Then 100 μL of supernatant of each compound was transferred to a 96-well sample plate, and 100 μL of purified water was added to dilute the sample. The resulting samples were quantified by ion chromatograms. The residual rate was calculated from peak areas of the compounds to be tested or the positive control. The slope k was determined using Microsoft Excel by linear regression of natural logarithm of the residual rate to the incubation time. The intrinsic clearance (in vitro CLint, μL/min/10^6 cells) was calculated from the slope value according to the following equation: […]
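For GI50 in this document: MDA-MB-436 proliferation over 7 days with compound, viability read as ATP luminescence (CellTiter-Glo), inhibition relative to DMSO-only wells, day 0 signal as background, GI50 from four-parameter fit.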

Sequence of USP1 (Recombinant Human His6-USP1/His6-UAF1 Complex Protein) (O94782 whole entry): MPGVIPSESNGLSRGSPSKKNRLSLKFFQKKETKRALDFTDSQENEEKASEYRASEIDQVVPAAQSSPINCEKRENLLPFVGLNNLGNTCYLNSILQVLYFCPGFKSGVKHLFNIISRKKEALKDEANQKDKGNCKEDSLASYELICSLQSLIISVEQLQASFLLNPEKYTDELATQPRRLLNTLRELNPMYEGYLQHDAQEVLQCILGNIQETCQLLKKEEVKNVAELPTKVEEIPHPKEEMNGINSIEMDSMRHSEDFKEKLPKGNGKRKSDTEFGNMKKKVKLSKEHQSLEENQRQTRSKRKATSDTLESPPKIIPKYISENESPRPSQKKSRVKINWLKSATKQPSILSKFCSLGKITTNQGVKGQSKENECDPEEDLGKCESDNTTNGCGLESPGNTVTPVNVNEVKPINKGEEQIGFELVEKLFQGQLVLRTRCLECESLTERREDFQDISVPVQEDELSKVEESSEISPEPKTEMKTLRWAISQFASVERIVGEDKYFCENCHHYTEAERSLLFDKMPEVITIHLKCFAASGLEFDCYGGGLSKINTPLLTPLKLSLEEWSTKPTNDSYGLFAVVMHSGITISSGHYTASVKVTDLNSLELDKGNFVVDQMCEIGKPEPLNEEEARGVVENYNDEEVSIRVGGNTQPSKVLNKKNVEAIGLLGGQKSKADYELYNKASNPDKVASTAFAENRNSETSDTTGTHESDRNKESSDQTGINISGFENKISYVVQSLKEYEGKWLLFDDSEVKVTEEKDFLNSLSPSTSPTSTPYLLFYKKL
Sequence of USP1 (Recombinant Human His6-USP1/His6-UAF1 Complex Protein) (Q8TAF3 whole entry partner): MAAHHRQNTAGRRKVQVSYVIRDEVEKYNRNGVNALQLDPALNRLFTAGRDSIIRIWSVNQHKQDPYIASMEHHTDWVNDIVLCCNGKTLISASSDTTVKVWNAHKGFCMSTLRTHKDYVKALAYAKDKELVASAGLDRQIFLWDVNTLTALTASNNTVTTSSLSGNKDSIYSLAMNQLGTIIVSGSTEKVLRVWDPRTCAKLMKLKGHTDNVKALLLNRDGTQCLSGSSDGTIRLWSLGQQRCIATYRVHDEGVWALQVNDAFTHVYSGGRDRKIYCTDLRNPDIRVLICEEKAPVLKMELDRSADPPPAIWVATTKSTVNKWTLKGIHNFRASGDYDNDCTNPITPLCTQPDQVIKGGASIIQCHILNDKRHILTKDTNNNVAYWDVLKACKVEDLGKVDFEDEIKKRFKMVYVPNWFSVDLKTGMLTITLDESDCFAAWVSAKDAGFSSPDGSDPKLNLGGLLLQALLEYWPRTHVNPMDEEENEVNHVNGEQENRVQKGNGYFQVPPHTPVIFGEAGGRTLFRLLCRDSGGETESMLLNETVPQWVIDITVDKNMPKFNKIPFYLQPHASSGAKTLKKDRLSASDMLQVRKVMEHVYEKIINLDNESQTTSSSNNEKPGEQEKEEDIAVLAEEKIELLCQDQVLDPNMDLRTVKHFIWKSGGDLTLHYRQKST
Experimental for MDA-MB-436 cells: Assay based on CellTiter-Glo luminescent cell viability assay system.
The assay kit (CellTiter-Glo® Luminescent Cell Viability Assay) was purchased from Promega, with Cat. No. of G7573, and was stored at −30° C. after subpackage. The kit is a homogeneous assay method for assaying the number of viable cells in a culture based on quantitative determination of ATP. The kit produces a luminescence signal proportional to the amount of ATP present, and the amount of ATP is directly proportional to the number of cells in the culture.
The cultured cells were trypsinized, collected and centrifuged, then resuspended at an adjusted concentration in a culture solution (DMEM+10% FBS), and cultured overnight on a 384-well plate (400 cells/20 μl/well) in a cell incubator with 5% CO2 at 37° C. An ECHO instrument was used to added the compound and pure DMSO onto each well of the 384-well plate. The total volume of the compound and DMSO is 100 nL, and the instrument obtains gradient diluted sample concentrations through different ratios. To each well, 30 μL of culture solution was added, and after mixing by centrifugal oscillation and re-centrifugation, the cells were cultured in a cell incubator for 7 days (one column of cells was subjected to CTG assay on the day of dosing). After day 7, 25 μL of CTG assay solution was added to each well, and after mixing by centrifugal oscillation and re-centrifugation, the cells were placed at room temperature away from light for 10 min. In terms of chemiluminescence signals, an Envision plate reader (PerkinElmer, emission wavelength: 400-700 nm) was used to measure a signal in each well. The chemiluminescence value [RLU]cpd on day 7 was obtained for the treatment group, the chemiluminescence value [RLU]cell on day 7 was obtained for the non-treatment group (given DMSO only), and the chemiluminescence value [RLU]background on day 0 was obtained for the parallel non-treatment group (given DMSO only) by CTG assay on day 0. […] In the following equation, x represents the concentration of the compound in a logarithmic form; and F(x) represents an effect value (inhibition rate of proliferation at the concentration): F(x)=(A+((B−A)/(1+((C/x)^D)))). A, B, C, and D are four parameters.

Row | Structure (SMILES) | solubility at 2 h [1] [µM] | GI50 (MDA-MB-436 cells) [nM] | pIC50 [2] | hepatocyte CLint at 1 μM [3] [µL/min/1e6 cells]
1 | COc1ncnc(C2CC2)c1-c1ncc2c(n1)N(Cc1ccc(-c3nc(C(F)(F)F)cn3C)cn1)CCO2 [Compound 16] | 284 (≈ 149 µg/mL) | 1080 |  | 
2 | COc1ncnc(C2CC2)c1-c1ncc2c(n1)N(Cc1ccc(-c3nc(C(F)(F)F)cn3C)cc1)CC(=O)N2C1CC1 [Compound 24, 2-(4-cyclopropyl-6-methoxypyrimidin-5-yl)-5-cyclopropyl-8-(4-(1-methyl-4-(trifluoromethyl)-1H-imidazol-2-yl)benzyl)-7,8-dihydropteridin-6(5H)-one] | 228 (≈ 131 µg/mL) | 86.2 | 7.63 | 
3 | COc1ncnc(C2CC2)c1-c1ncc2c(n1)N(Cc1ccc(-c3nc(C(F)(F)F)cn3C)cc1)C(C)C(=O)N2C (centres unmarked) [Compound 26, 2-(4-cyclopropyl-6-methoxypyrimidin-5-yl)-5,7-dimethyl-8-(4-(1-methyl-4-(trifluoromethyl)-1H-imidazol-2-yl)benzyl)-7,8-dihydropteridin-6(5H)-one] | 115 (≈ 64.9 µg/mL) | 41.1 | 7.38 | 4.2
4 | COc1ncnc(C2CC2)c1-c1ncc2c(n1)N(Cc1ccc(-c3nc(C(F)(F)F)cn3C(F)F)cc1)CC(=O)N2C [Compound 28, 2(4-cyclopropyl-6-methoxypyrimidin-5-yl)-8-((4-(1-(difluoromethyl)-4-(trifluoromethyl)-1H-imidazol-2-yl)phenyl)methyl)-5-methyl-7,8-dihydropteridin-6(5H)-one] | 73 (≈ 42.8 µg/mL) | 51.1 | 7.47 | 6.3
5 | COc1ncnc(C2CC2)c1-c1ncc2c(n1)N(CC1CCN(c3nc(C(F)(F)F)cn3C)CC1)CCO2 [Compound 30, 2-(4-cyclopropyl-6-methoxypyrimidin-5-yl)-8-((1-(1-methyl-4-(trifluoromethyl)-1H-imidazol-2-yl)piperidin-4-yl)methyl)-7,8-dihydro-6H-pyrimido[5,4-b][1,4]oxazine] | 225 (≈ 119 µg/mL) | 161 | 7.35 | 
6 | CCN1C(=O)CN(Cc2ccc(-c3nc(C(F)(F)F)cn3C)cc2)c2nc(-c3c(OC)ncnc3C3CC3)ncc21 [Compound 33, 2-(4-cyclopropyl-6-methoxypyrimidin-5-yl)-5-ethyl-8-(4-(1-methyl-4-(trifluoromethyl)-1H-imidazol-2-yl)benzyl)-7,8-dihydropteridin-6(5H)-one] |  | 53.8 | 7.50 | 4.3
7 | CCn1cc(C(F)(F)F)nc1-c1ccc(CN2CC(=O)N(C)c3cnc(-c4c(OC)ncnc4C4CC4)nc32)cc1 [Compound 40, 2-(4-cyclopropyl-6-methoxypyrimidin-5-yl)-5-methyl-8-(4-(1-ethyl-4-(trifluoromethyl)-1H-imidazol-2-yl)benzyl)-7,8-dihydropteridin-6(5H)-one] | 122 (≈ 68.9 µg/mL) | 22.6 | 7.57 | 
8 | COc1ncnc(C2CC2)c1-c1ncc2c(n1)N(Cc1ccc(-c3nc(C(F)(F)F)cn3C(C)C)cc1)CC(=O)N2C [Compound 41, 2-(4-cyclopropyl-6-methoxypyrimidin-5-yl)-5-methyl-8-(4-(1-isopropyl-4-(trifluoromethyl)-1H-imidazol-2-yl)benzyl)-7,8-dihydropteridin-6(5H)-one] | 88 (≈ 50.9 µg/mL) | 28.4 | 7.72 | 
9 | CCN1C(=O)CN(Cc2ccc3c(c2)CCCn2cc(C(F)(F)F)nc2-3)c2nc(-c3c(OC)ncnc3C3CC3)ncc21 [Compound 46, 2-(4-cyclopropyl-6-methoxypyrimidin-5-yl)-5-ethyl-8-((2-(trifluoromethyl)-6,7-dihydro-5H-benzo[c]imidazo[1,2-a]azepin-9-yl)methyl)-7,8-dihydropteridin-6(5H)-one] | 50 (≈ 29.5 µg/mL) |  |  | 
10 | COc1ncnc(C2CC2)c1-c1ncc2c(n1)N(Cc1cc(F)c(-c3nc(C(F)(F)F)cn3C)c(F)c1)CC(=O)N2C [Compound 66, 2-(4-cyclopropyl-6-methoxypyrimidin-5-yl)-5-methyl-8-(3,5-difluoro-4-(1-methyl-4-(trifluoromethyl)-1H-imidazol-2-yl)benzyl)-7,8-dihydropteridin-6(5H)-one] | 115 (≈ 67.5 µg/mL) | 29.6 | 7.57 | 
11 | COc1ncnc(C2CC2)c1-c1ncc2c(n1)N(Cc1ccc(-c3nc(C(F)(F)F)cn3C)c(F)c1)C(C)C(=O)N2C (centres unmarked) [Compound 70, 2-(4-cyclopropyl-6-methoxypyrimidin-5-yl)-8-(3-fluoro-4-(1-methyl-4-(trifluoromethyl)-1H-imidazol-2-yl)benzyl)-5,7-dimethyl-7,8-dihydropteridin-6(5H)-one] | 98 (≈ 57.1 µg/mL) | 93.1 | 7.42 | 
12 | COc1ncnc(C2CC2)c1-c1ncc2c(n1)N(Cc1ccc(-c3nc(C(F)(F)F)cn3C)cc1)CC(=O)N2C(C)C [Compound 78, 2-(4-cyclopropyl-6-methoxypyrimidin-5-yl)-8-(4-(1-methyl-4-(trifluoromethyl)-1H-imidazol-2-yl)benzyl)-5-isopropyl-7,8-dihydropteridin-6(5H)-one] |  | 53.1 | 7.02 | 
13 | COc1ncnc(C2CC2)c1-c1ncc2c(n1)N(Cc1ccc3c(c1)C(C)CCn1cc(C(F)(F)F)nc1-3)CC(=O)N2C (centres unmarked) [Compound 79, 2-(4-cyclopropyl-6-methoxypyrimidin-5-yl)-5-methyl-8-((7-methyl-2-(trifluoromethyl)-6,7-dihydro-5H-benzo[c]imidazo[1,2-a]azepin-9-yl)methyl)-7,8-dihydropteridin-6(5H)-one] |  | 80.2 | 7.02 | 
14 | COc1ncnc(C2CC2)c1-c1ncc2c(n1)N(Cc1ccc(-c3nc(C(F)(F)F)cn3C)cc1)C(=O)OC2 [Compound 80, 7-(4-cyclopropyl-6-methoxypyrimidin-5-yl)-1-(4-(1-methyl-4-(trifluoromethyl)-1H-imidazol-2-yl)benzyl)-1,4-dihydro-2H-pyrimido[4,5-d][1,3]oxazin-2-one] | 72 (≈ 38.7 µg/mL) |  | 7.93 | 
15 | COc1ncnc(C2CC2)c1-c1ncc2c(n1)N(Cc1ccc(-c3nc(C(F)(F)F)cn3C)cc1)C(=O)OC2C (centres unmarked) [Compound 81, 7-(4-cyclopropyl-6-methoxypyrimidin-5-yl)-4-methyl-1-(4-(1-methyl-4-(trifluoromethyl)-1H-imidazol-2-yl)benzyl)-1,4-dihydro-2H-pyrimido[4,5-d][1,3]oxazin-2-one] |  | 69.3 | 7.57 | 
16 | COc1ncnc(C2CC2)c1-c1ncc2c(n1)N(Cc1ccc3c(c1)CCCn1cc(C(F)(F)F)nc1-3)CC(=S)N2C [Compound 82, 2-(4-cyclopropyl-6-methoxypyrimidin-5-yl)-5-methyl-8-((2-(trifluoromethyl)-6,7-dihydro-5H-benzo[c]imidazo[1,2-a]azepin-9-yl)methyl)-7,8-dihydropteridine-6(5H)-thione] |  | 35.8 | 7.23 | 
17 | COc1ncnc(C2CC2)c1-c1ncc2c(n1)N(Cc1ccc(-c3nc(C(F)(F)F)cn3C)c(F)c1)CC(=S)N2C [Compound 83, 2-(4-cyclopropyl-6-methoxypyrimidin-5-yl)-8-(3-fluoro-4-(1-methyl-4-(trifluoromethyl)-1H-imidazol-2-yl)benzyl)-5-methyl-7,8-dihydropteridine-6(5H)-thione] |  | 23 | 7.31 | 
